Data as given in patent US20210255193A1, “LYSINE REACTIVE PROBES AND USES THEREOF” (The Scripps Research Institute, priority 2017, published 2021).
Each block holds one compound with its values, some of them ahead of it.

Tests used:
Experiment in all cases: competitive isoTOP-ABPP
Assay type in all cases: binding
[1] = target: T1, TRAP1 Heat shock protein 75 kDa, mitochondrial (Homo sapiens, UniProt Q12931); details: for isoTOP-ABPP ratio (R) at liganded lysine Q12931_K699: sol, 231; for isoTOP-ABPP ratio, lysine Q12931_K699: 50 uM_231_sol_in vitro
T1 construct: isoTOP-ABPP experiments performed in cell lysates (in vitro); endogenous in cells; host or cells: soluble proteome of human cancer cell lines (MDA-MB-231, Ramos, Jurkat)
T1 sequence (Q12931 60-704): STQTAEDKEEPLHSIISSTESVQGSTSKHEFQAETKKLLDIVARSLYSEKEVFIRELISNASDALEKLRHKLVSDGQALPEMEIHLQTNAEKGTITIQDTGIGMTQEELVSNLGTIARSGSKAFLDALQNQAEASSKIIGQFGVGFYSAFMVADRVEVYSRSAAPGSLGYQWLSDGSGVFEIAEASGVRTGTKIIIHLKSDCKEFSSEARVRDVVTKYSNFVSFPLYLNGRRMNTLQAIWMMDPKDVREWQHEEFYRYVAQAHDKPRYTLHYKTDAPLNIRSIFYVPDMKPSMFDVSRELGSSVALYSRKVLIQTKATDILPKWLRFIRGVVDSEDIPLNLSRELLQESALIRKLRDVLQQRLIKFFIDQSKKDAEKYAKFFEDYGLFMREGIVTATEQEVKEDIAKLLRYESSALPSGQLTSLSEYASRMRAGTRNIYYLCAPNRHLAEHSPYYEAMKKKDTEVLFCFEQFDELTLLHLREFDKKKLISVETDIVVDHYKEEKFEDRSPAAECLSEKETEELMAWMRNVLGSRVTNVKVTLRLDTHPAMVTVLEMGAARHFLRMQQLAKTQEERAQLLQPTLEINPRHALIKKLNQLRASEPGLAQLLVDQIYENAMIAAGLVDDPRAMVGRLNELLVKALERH
Experimental: (§1) In vitro covalent fragment treatment for isoTOP-ABPP. All compounds were made up as solutions in DMSO (100×) and were used at a final concentration of 50 μM for activated esters and 100 μM for guanidinylating agents. For each profiling sample, 0.5 ml of lysate was treated with 5 μl of the 100× compound stock solution or 5 μl of DMSO. Samples were treated with activated esters for
(§2) STP-alkyne labeling and click chemistry. For concentration-dependent reactivity measurements by isoTOP-ABPP, 0.5 ml proteome aliquots were treated at ambient temperature with 1 mM STP-alkyne 1 (5 μl of 100 mM stock in DMSO) and 0.1 mM STP alkyne 1 (5 μl of 10 mM stock in DMSO), respectively. For competitive isoTOP-ABPP, after in vitro fragment treatment (detailed above), the samples were labeled for 1 h at ambient temperature with 0.1 mM STP-alkyne 1 (5 μl of 10 mM stock in DMSO). Samples were conjugated by copper-mediated azide-alkyne cycloaddition (CuAAC) to either the light (1 mM STP-alkyne or fragment treated) or heavy (0.1 mM STP-alkyne or DMSO treated) TEV tags (10 μl of 5 mM stocks in DMSO, final concentration=100 μM) using tris(2-carboxyethyl)phosphine hydrochloride
(§3) R value calculation and processing. The ratios of light and heavy MS1 peaks for each unique peptide were quantified with a CIMAGE software using default parameters (3 MS1 acquisitions per peak and signal to noise threshold set to 2.5). For reactivity measurements by isoTOP-ABPP, the R value was calculated from the ratio of MS1 peak areas, comparing the 1 mM STP alkyne sample (light TEV tag) with the 0.1 mM STP alkyne sample (heavy TEV tag). For competitive isoTOP-ABPP, the R value was calculated from the ratio of MS1 peak areas, comparing the DMSO treated sample (heavy TEV tag) with the compound treated sample (light TEV tag). […] Ratios for unique peptide entries are calculated for each experiment; overlapping peptides with the same modified lysine (for example, different charge states, MudPIT chromatographic steps or tryptic termini) are grouped together and the median ratio is reported as the final ratio (R). The peptide ratios reported by CIMAGE were further filtered to ensure the removal or correction of low-quality ratios in each individual data set. The quality filters applied were the following: removal of half tryptic peptides; for ratios with high standard deviations from the median (90% of the median or above) the lowest ratio was taken instead of the median; removal of peptides with R=20 and only a single MS2 event triggered during the elution of the parent ion; manual annotation of all the peptides with ratios of 20, removing any peptides with low quality elution profiles that remained after the previous curation steps (only done for competitive isoTOP-ABPP).
(§4) Cross-data processing for fragment screening. For compound treated samples, biological replicates of the same condition were averaged, if the standard deviation was below 60% of the mean; otherwise, for lysines with at least one R value <4 for a particular compound, the lowest value of the ratio set was taken. For lysines, where all R values for a particular compound were ≥4, the average was reported. For peptides containing several possible modified lysines, the lysine with the highest number of quantification events was used for analysis and the remaining, redundant peptides were reported as alternative modification sites. Peptides included in the aggregate dataset (those used for further bioinformatics and statistical analyses) were required to have been quantified in 2 experiments for competitive isoTOP-ABPP. Lysines were categorized as liganded, if they had at least one ratio R≥4 (hit fragments). For liganded lysines with R=20 for all liganding events, lysines were required to have been quantified with R=20 in two separate experiments and were further required to have been quantified with R<20 in one additional experiment.

[2] = target: T2, GLUD1 Glutamate dehydrogenase 1, mitochondrial (Homo sapiens, UniProt P00367); details: for isoTOP-ABPP ratio (R) at liganded lysine P00367_K480: sol, 231; for isoTOP-ABPP ratio, lysine P00367_K480: 50 uM_231_sol_in vitro, possible other lysine P00367_K477
T2 construct: isoTOP-ABPP experiments performed in cell lysates (in vitro); endogenous in cells; host or cells: MDA-MB-231 soluble lysate
T2 sequence (P00367 54-558): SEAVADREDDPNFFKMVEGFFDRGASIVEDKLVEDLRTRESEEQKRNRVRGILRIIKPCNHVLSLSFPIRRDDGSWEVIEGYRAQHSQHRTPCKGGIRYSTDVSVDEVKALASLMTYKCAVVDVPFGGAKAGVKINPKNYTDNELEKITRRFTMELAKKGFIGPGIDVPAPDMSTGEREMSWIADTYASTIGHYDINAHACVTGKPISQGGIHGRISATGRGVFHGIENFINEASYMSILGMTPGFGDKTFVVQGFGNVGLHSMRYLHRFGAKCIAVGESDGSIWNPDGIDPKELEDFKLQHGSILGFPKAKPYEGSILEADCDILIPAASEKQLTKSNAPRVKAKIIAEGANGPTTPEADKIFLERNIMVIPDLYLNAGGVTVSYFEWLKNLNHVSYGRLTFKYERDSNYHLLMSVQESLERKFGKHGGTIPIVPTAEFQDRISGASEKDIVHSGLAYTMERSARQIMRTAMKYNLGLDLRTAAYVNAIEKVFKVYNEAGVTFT
Experimental: as §1, §2, §3, §4

[3] = target: T3, XRCC6 X-ray repair cross-complementing protein 6 (Homo sapiens, UniProt P12956); details: for isoTOP-ABPP ratio (R) at liganded lysine P12956_K351: sol, 231; for isoTOP-ABPP ratio, lysine P12956_K351: 50 uM_231_sol_in vitro
T3 construct: isoTOP-ABPP experiments performed in cell lysates (in vitro); endogenous in cells; host or cells: soluble proteome of human cancer cell lines (MDA-MB-231; Ramos and Jurkat also prepared)
T3 sequence (P12956 2-609 limits assumed): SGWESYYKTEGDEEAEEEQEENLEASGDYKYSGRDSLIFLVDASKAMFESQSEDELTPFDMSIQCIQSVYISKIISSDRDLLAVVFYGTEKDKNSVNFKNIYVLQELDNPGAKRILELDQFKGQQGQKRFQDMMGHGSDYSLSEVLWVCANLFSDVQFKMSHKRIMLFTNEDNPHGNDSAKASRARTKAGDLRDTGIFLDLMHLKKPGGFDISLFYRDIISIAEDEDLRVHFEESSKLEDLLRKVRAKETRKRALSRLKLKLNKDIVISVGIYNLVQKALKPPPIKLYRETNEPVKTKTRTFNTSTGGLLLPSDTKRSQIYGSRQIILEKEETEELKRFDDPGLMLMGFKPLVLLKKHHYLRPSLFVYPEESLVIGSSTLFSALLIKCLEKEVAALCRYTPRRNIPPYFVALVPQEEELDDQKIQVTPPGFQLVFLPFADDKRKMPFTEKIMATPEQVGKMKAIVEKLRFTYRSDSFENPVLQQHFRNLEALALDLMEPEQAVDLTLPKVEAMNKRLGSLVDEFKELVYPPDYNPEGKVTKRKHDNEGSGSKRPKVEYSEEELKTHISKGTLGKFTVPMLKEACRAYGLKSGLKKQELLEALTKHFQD
T3 sequence (P13010 2-732 partner limits assumed): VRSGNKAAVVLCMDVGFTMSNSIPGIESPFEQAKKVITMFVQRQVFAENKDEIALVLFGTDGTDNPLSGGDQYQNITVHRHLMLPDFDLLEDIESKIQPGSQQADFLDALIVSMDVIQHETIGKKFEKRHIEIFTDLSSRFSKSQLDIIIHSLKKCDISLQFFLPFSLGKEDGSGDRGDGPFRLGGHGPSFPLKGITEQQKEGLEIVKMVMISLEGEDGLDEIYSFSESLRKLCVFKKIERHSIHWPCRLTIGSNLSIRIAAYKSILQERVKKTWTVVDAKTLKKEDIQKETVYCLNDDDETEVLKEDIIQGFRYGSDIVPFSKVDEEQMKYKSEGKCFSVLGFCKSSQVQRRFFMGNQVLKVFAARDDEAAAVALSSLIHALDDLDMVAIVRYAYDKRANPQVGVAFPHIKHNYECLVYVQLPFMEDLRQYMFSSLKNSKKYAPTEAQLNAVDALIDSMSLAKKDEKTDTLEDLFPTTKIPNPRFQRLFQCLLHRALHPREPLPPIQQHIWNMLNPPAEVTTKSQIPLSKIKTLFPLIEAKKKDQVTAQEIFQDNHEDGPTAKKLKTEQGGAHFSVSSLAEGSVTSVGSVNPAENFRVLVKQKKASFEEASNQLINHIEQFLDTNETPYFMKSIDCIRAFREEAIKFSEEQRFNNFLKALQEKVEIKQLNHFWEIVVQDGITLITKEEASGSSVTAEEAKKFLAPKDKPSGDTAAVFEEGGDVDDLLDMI
Experimental: as §1, §2, §3, §4

[4] = target: T4, MRPS24 28S ribosomal protein S24, mitochondrial (Homo sapiens, UniProt Q96EL2); details: for isoTOP-ABPP ratio, lysine Q96EL2_K94: 50 uM_231_sol_in vitro
T4 construct: isoTOP-ABPP experiments performed in cell lysates (in vitro); endogenous in cells; host or cells: soluble proteome of human cancer cell lines (MDA-MB-231; Ramos and Jurkat also prepared)
Experimental: as §1, §2, §3, §4

[5] = target: T5, GLOD4 Glyoxalase domain-containing protein 4 (Homo sapiens, UniProt Q9HC38)
T5 construct: endogenous in cells; host or cells: MDA-MB-231 (soluble fraction of lysate)
T5 sequence (Q9HC38 1-313): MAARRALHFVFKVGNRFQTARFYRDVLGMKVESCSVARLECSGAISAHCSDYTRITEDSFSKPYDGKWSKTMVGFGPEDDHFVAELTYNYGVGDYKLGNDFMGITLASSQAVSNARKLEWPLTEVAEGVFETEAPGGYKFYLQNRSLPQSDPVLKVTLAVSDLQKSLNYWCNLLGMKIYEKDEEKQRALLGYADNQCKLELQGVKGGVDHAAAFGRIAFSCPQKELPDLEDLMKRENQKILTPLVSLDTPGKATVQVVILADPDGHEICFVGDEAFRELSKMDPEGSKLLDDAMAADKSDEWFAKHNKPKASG
Experimental: as §1, §2, §3, §4

SMILES: Cn1cc(CC(=O)Oc2ccc([N+](=O)[O-])cc2[N+](=O)[O-])c2ccccc21 [fragment 32, 2,4-Dinitrophenyl 2-(1-methyl-1H-indol-3-yl)acetate]
isoTOP-ABPP reactivity ratio at lysine Q12931_K699 ([1]; 50 uM, 231 sol, in vitro): 2.0
isoTOP-ABPP reactivity ratio at lysine P00367_K480 ([2]; 50 uM, 231 sol, in vitro): 4.4
isoTOP-ABPP reactivity ratio at lysine P12956_K351 ([3]; 50 uM, 231 sol, in vitro): 13.4
isoTOP-ABPP reactivity ratio at lysine Q96EL2_K94 ([4]; 50 uM, 231 sol, in vitro): 5.1

SMILES: O=C(CCc1coc2cc(F)ccc2c1=O)Oc1ccc([N+](=O)[O-])cc1[N+](=O)[O-] [fragment 36, 2,4-Dinitrophenyl 3-(7-fluoro-4-oxo-4H-chromen-3-yl)propanoate]
isoTOP-ABPP ratio (R) at liganded lysine Q12931_K699 ([1]; 50 uM, in vitro): 1.7
isoTOP-ABPP ratio (R) at liganded lysine P00367_K480 ([2]; 50 uM, in vitro): 3.2
isoTOP-ABPP ratio (R) at liganded lysine P12956_K351 ([3]; 50 uM, in vitro): 2.1
isoTOP-ABPP ratio (R) at liganded lysine Q96EL2_K94 ([4]; 50 uM, in vitro, sol, 231): 2.8

SMILES: O=C(Oc1ccc([N+](=O)[O-])cc1[N+](=O)[O-])c1ccccc1Nc1cccc(C(F)(F)F)c1 [fragment 40, 2,4-Dinitrophenyl 2-((3-(trifluoromethyl)phenyl)amino)benzoate]
isoTOP-ABPP ratio (R) at liganded lysine Q9HC38_K305 ([5]; 50 uM, in vitro, sol, 231): 0.8
isoTOP-ABPP ratio (R) at liganded lysine Q12931_K699 ([1]; 50 uM, in vitro): 0.9
isoTOP-ABPP ratio (R) at liganded lysine P00367_K480 ([2]; 50 uM, in vitro): 1.2
isoTOP-ABPP ratio (R) at liganded lysine P12956_K351 ([3]; 50 uM, in vitro): 1.0

SMILES: O=C(CCc1ccc2c(c1)OCO2)Oc1ccc([N+](=O)[O-])cc1[N+](=O)[O-] [fragment 45, 2,4-Dinitrophenyl 3-(benzo[d][1,3]dioxol-5-yl)propanoate]
isoTOP-ABPP ratio, lysine Q9HC38_K305 ([5]; 50 uM_231_sol_in vitro): 0.7
isoTOP-ABPP ratio, lysine Q12931_K699 [1]: 1.4
isoTOP-ABPP ratio, lysine P00367_K480 [2]: 2.8
isoTOP-ABPP ratio, lysine P12956_K351 [3]: 1.9

SMILES: O=C(ON1C(=O)CCC1=O)c1cc(C(F)(F)F)cc(C(F)(F)F)c1 [fragment 46, 3,5-Bis(trifluoromethyl)benzoic acid NHS ester]
isoTOP-ABPP ratio, lysine Q12931_K699 [1]: 0.9
isoTOP-ABPP ratio, lysine P00367_K480 [2]: 1.5
isoTOP-ABPP ratio, lysine P12956_K351 [3]: 2.5
isoTOP-ABPP ratio, lysine Q96EL2_K94 [4]: 1.0

isoTOP-ABPP ratio, lysine Q12931_K699 [1]: 1.1
isoTOP-ABPP ratio, lysine P00367_K480 [2]: 2.0
isoTOP-ABPP ratio, lysine P12956_K351 [3]: 1.4
SMILES: O=C(Oc1c(F)c(F)c(C(F)(F)F)c(F)c1F)c1cc(C(F)(F)F)cc(C(F)(F)F)c1 [fragment 47, 2,3,5,6-Tetrafluoro-4-(trifluoromethyl)phenyl 3,5-bis(trifluoromethyl)benzoate]

isoTOP-ABPP ratio, lysine Q12931_K699 [1]: 1.0
isoTOP-ABPP ratio, lysine P00367_K480 [2]: 1.5
isoTOP-ABPP ratio, lysine P12956_K351 [3]: 1.5
isoTOP-ABPP ratio, lysine Q96EL2_K94 [4]: 1.0
SMILES: O=C(Oc1c(F)c(F)cc(F)c1F)c1cc(C(F)(F)F)cc(C(F)(F)F)c1 [fragment 48, 2,3,5,6-Tetrafluorophenyl 3,5-bis(trifluoromethyl)benzoate]
